Laboratory results: patent US8796328B2, “TRPV1 antagonists” (AbbVie Inc., priority 2012, dated 2014)

Tests used:
[1] = target: T1, human TRPV1 receptor (hTRPV1) (Homo sapiens (Human), UniProt Q8NER1); test: Acid activation assay (pH 5.0, FLIPR intracellular Ca2+); assay type: cell-based; details: 37.5 μM compound, percentage of the maximal pH 5.0-induced response remaining; for remaining activity at 37.5 µM: read-out: hTRPV1 H+ (max % remain)
Experimental: Dulbecco's modified Eagle's medium (DMEM) with 4.5 mg/mL D-glucose, fetal bovine serum, L-glutamine, and 2-morpholinoethanesulfonic acid (MES) were purchased from Sigma-Aldrich Co. (St. Louis, Mo.). Dulbecco's phosphate-buffered saline (DPBS) with Ca^2+, Mg^2+, and 1 mg/mL D-glucose (pH 7.4), Geneticin®, 0.25% trypsin-1 mM EDTA, and penicillin-streptomycin were purchased from Invitrogen Corp. (Carlsbad, Calif.). The FLIPR® Calcium 4 assay kit was purchased from Molecular Devices (Sunnyvale, Calif.).
(§1) The cDNAs for the human TRPV1 receptor (hTRPV1) were isolated by reverse transcriptase-polymerase chain reaction (RT-PCR) from human small intestine poly A+ RNA supplied by Clontech (Palo Alto, Calif.) using primers designed surrounding the initiation and termination codons identical to the published sequences (Hayes et al. Pain 2000, 88, 205-215). The resulting cDNA PCR products were subcloned into pCIneo mammalian expression vector (Promega) and fully sequenced using fluorescent dye-terminator reagents (Prism, Perkin-Elmer Applied Biosystems Division) and a Perkin-Elmer Applied Biosystems Model 373 DNA sequencer or Model 310 genetic analyzer. Expression plasmids encoding the hTRPV1 cDNA were transfected individually into 1321N1 human astrocytoma cells using Lipofectamine®. Forty-eight hours after transfection, the neomycin-resistant cells were selected with growth medium containing 800 μg/mL Geneticin (Gibco BRL). Surviving individual colonies were isolated and screened for TRPV1 receptor activity. Cells expressing recombinant homomeric TRPV1 receptors were maintained at 37° C. in DMEM containing 4 mM L-glutamine, 300 μg/mL G418 (Cal-biochem) and 10% fetal bovine serum under a humidified 5% CO2 atmosphere.
The functional activity of compounds at the TRPV1 receptor was determined by measurement of intracellular Ca^2+ levels ([Ca^2+]i) using the Fluorescence Imaging Plate Reader (FLIPR)^TETRA®. All compounds were tested over a 12-point one-half-log concentration range. Compound stocks, 10 mM, were prepared in DMSO, and diluted serially across a 384-well plate using a Bravo BenchCel workstation (Agilent Technologies, Santa Clara, Calif.).
On the day of the experiment growth medium was removed, and the no-wash FLIPR®Calcium-4 dye (λEX=470-495 nm, λEM=515-575 nm) was added to each well using the Multidrop® dispenser. Cells were incubated for 90-120 minutes in the dark at 25° C. Test compounds were dissolved in DMSO, and plates were prepared using an Agilent Bravo workstation (Agilent Technologies Inc., Santa Clara, Calif.). Compounds were added to the cells 3 minutes prior to the addition of a pH 5.0 solution. Reagents were delivered at a rate of 40 μL/sec, and the final assay volume was 80 μL. Acidic pH solutions were prepared by titration of DPBS/MES with 1 N HCl. The intensity of the fluorescence was captured and digitally transferred to an interfaced PC.

[2] = target: T1, human TRPV1 receptor (hTRPV1); test: Capsaicin activation assay (FLIPR intracellular Ca2+); assay type: cell-based; details: inhibition of capsaicin-induced intracellular Ca2+ increase; compounds added 3 minutes prior to capsaicin; read-out: hTRPV1 cap. IC50
Experimental: Dulbecco's modified Eagle medium (D-MEM) (with 4.5 mg/mL glucose) and fetal bovine serum were obtained from Hyclone Laboratories, Inc. (Logan, Utah). Dulbecco's phosphate-buffered saline (D-PBS) (with 1 mg/mL glucose and 3.6 mg/l Na pyruvate, without phenol red), L-glutamine, hygromycin B, and Lipofectamine® were obtained from Life Technologies (Grand Island, N.Y.). G418 sulfate was obtained from Calbiochem-Novabiochem Corp. (San Diego, Calif.). Capsaicin (8-methyl-N-vanillyl-6-nonenamide) was obtained from Sigma-Aldrich, Co. (St. Louis, Mo.). Fluo-4 AM (N-[4-[6-[(acetyloxy)methoxy]-2,7-difluoro-3-oxo-3H-xanthen-9-yl]-2-[2-[2-[bis[2-[(acetyloxy)methoxy]-2-oxyethyl]amino]-5-methylphenoxy]ethoxy]phenyl]-N-[2-[(acetyloxy)methoxy]-2-oxyethyl]-glycine, (acetyloxy)methyl ester) was purchased from Molecular Probes (Eugene, Oreg.).
as §1, with “D-MEM” for “DMEM”
The functional activity of compounds at the TRPV1 receptor was determined by measurement of intracellular Ca^2+ levels ([Ca^2]i) using the Fluorescence Imaging Plate Reader (FLIPR)^TETRA®. All compounds were tested over a 12-point one-third-log concentration range. Compound stocks, 10 mM, were prepared in DMSO, and diluted serially across a 384-well plate using a Bravo BenchCel workstation (Agilent Technologies, Santa Clara, Calif.). A stock concentration of capsaicin (10 mM) was made in DMSO, and diluted in D-PBS to a final concentration of 200 nM (4×). On the day prior to the experiment, recombinant HEK293 cells that stably express either human or rat TRPV1 (hTRPV1-3) were removed from tissue culture flasks and plated in growth medium into black-walled clear-bottom 384-well Biocoat™ poly-D-lysine assay plates (BD Biosciences, Bedford, Mass.) using a Multidrop® dispenser (ThermoScientific, Waltham, Mass.). On the day of the experiment, growth medium was removed, and the no-wash FLIPR® Calcium-4 dye (λEX=470-495 nm, λEM=515-575 nm; Molecular Devices, Sunnyvale, Calif.) was added to each well using the Multidrop® dispenser. Cells were incubated for 90-120 minutes in the dark at room temperature. Test compounds were added to the cells 3 minutes prior to the addition of 200 nM capsaicin (4×), and the final assay volume was 80 μL. Fluorescence readings were made at 1 to 5 second intervals over the course of the experimental run. The peak increase in relative fluorescence units (minus baseline) was calculated, and expressed as a percentage of the 50 nM capsaicin (control) response. Curve-fits of the data were solved using a four-parameter logistic Hill equation in GraphPad Prism® (GraphPad Software, Inc., San Diego, Calif.), and IC50 values (concentration of the test compounds that inhibits 50% of the intracellular Ca^2+ concentration increase induced by capasin) were calculated.

T1 sequence (Q8NER1 whole entry): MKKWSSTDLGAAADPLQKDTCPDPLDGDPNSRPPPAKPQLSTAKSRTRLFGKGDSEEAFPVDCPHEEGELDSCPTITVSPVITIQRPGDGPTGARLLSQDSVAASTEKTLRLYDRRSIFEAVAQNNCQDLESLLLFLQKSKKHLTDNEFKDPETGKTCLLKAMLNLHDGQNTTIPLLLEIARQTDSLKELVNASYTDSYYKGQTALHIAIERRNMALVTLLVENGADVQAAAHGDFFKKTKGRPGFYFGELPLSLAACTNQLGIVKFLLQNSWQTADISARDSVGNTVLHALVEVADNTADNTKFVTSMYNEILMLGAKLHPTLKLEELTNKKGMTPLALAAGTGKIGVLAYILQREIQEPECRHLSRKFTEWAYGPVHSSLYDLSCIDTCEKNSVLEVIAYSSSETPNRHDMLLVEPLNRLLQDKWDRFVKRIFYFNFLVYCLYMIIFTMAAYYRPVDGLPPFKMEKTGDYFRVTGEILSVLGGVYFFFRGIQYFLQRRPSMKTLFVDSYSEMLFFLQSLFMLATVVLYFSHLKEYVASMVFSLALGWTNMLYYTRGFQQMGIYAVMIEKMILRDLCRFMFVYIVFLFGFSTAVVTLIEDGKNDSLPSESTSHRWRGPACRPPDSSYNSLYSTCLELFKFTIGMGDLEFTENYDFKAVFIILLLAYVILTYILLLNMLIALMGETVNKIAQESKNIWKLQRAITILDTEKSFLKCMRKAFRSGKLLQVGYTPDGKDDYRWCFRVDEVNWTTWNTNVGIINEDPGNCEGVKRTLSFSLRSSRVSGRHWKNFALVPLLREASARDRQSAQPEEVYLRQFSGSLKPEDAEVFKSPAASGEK

remaining activity at 37.5 µM [1] [%]	IC50 [2] [µM]	hTRPV1 H+ (max % remain) [1] [%]	Compound
68	29.5	–	CS(=O)(=O)Nc1ccc(CNC(=O)N[C@@H]2CC(CF)(CF)Oc3c(F)cccc32)cc1F [Example 28, N-{2-fluoro-4-[({[(4R)-8-fluoro-2,2-bis(fluoromethyl)-3,4-dihydro-2H-chromen-4-yl]carbamoyl}amino)methyl]phenyl}methanesulfonamide]
59	22.5	–	CS(=O)(=O)Nc1ccc(CNC(=O)N[C@@H]2CC(CF)(CF)Oc3ccccc32)cc1F [Example 27, N-{4-[({[(4R)-2,2-bis(fluoromethyl)-3,4-dihydro-2H-chromen-4-yl]carbamoyl}amino)methyl]-2-fluorophenyl}methanesulfonamide]
87	> 37.5	–	CS(=O)(=O)Nc1ccc(CNC(=O)N[C@@H]2CCOc3ccccc32)cc1F [Example 12, N-[4-({[(4R)-3,4-dihydro-2H-chromen-4-ylcarbamoyl]amino}methyl)-2-fluorophenyl]methanesulfonamide]
74	7.56	–	CC1(C)C[C@@H](NC(=O)NCc2ccc(NS(C)(=O)=O)c(F)c2)c2ccccc2O1 [Example 21, N-{4-[({[(4R)-2,2-dimethyl-3,4-dihydro-2H-chromen-4-yl]carbamoyl}amino)methyl]-2-fluorophenyl}methanesulfonamide]
88	0.325	–	CS(=O)(=O)Nc1ccc(CNC(=O)N[C@@H]2CCc3cc(C(F)(F)F)ccc32)cc1F [Example 5, N-{2-fluoro-4-[({[(1R)-5-(trifluoromethyl)-2,3-dihydro-1H-inden-1-yl]carbamoyl}amino)methyl]phenyl}methanesulfonamide]
85	0.863	–	CS(=O)(=O)Nc1ccc(CNC(=O)N[C@@H]2CC(CF)(CF)Oc3cc(OC(F)(F)F)ccc32)cc1F [Example 15, N-{4-[({[(4R)-2,2-bis(fluoromethyl)-7-(trifluoromethoxy)-3,4-dihydro-2H-chromen-4-yl]carbamoyl}amino)methyl]-2-fluorophenyl}methanesulfonamide]
60	0.791	–	CS(=O)(=O)Nc1ccc(CNC(=O)N[C@@H]2CC(CF)(CF)Oc3c2ccc(Cl)c3F)cc1F [Example 20, N-{4-[({[(4R)-7-chloro-8-fluoro-2,2-bis(fluoromethyl)-3,4-dihydro-2H-chromen-4-yl]carbamoyl}amino)methyl]-2-fluorophenyl}methanesulfonamide]
71	7.59	–	CC1(C)C[C@@H](NC(=O)NCc2ccc(NS(C)(=O)=O)c(F)c2)c2cc(F)ccc2O1 [Example 22, N-{2-fluoro-4-[({[(4R)-6-fluoro-2,2-dimethyl-3,4-dihydro-2H-chromen-4-yl]carbamoyl}amino)methyl]phenyl}methanesulfonamide]
58	0.587	–	C[C@]1(C(F)(F)F)C[C@@H](NC(=O)NCc2ccc(NS(C)(=O)=O)c(F)c2)c2ccccc2O1 [Example 36, N-{2-fluoro-4-[({[(2R,4R)-2-methyl-2-(trifluoromethyl)-3,4-dihydro-2H-chromen-4-yl]carbamoyl}amino)methyl]phenyl}methanesulfonamide]
79	22.8	–	CS(=O)(=O)Nc1ccc(CNC(=O)N[C@@H]2CC(CF)(CF)Oc3c(F)cc(F)cc32)cc1F [Example 16, N-{4-[({[(4R)-6,8-difluoro-2,2-bis(fluoromethyl)-3,4-dihydro-2H-chromen-4-yl]carbamoyl}amino)methyl]-2-fluorophenyl}methanesulfonamide]
24	0.358	–	CC1(C)C[C@@H](NC(=O)NCc2ccc(NS(C)(=O)=O)c(F)c2)c2ccc(F)c(Cl)c2O1 [Example 23, N-{4-[({[(4R)-8-chloro-7-fluoro-2,2-dimethyl-3,4-dihydro-2H-chromen-4-yl]carbamoyl}amino)methyl]-2-fluorophenyl}methanesulfonamide]
73	2.9	–	CS(=O)(=O)Nc1ccc(CNC(=O)N[C@@H]2CC(CF)(CF)Oc3cc(Cl)ccc32)cc1F [Example 6, N-{4-[({[(4R)-7-chloro-2,2-bis(fluoromethyl)-3,4-dihydro-2H-chromen-4-yl]carbamoyl}amino)methyl]-2-fluorophenyl}methanesulfonamide]
70	0.602	–	CC1(C)C[C@@H](NC(=O)NCc2ccc(NS(C)(=O)=O)c(F)c2)c2ccc(Cl)cc2O1 [Example 25, N-{4-[({[(4R)-7-chloro-2,2-dimethyl-3,4-dihydro-2H-chromen-4-yl]carbamoyl}amino)methyl]-2-fluorophenyl}methanesulfonamide]
–	23.1	101	CS(=O)(=O)Nc1ccc(CNC(=O)N[C@H]2CC3(CCC3)Oc3ccc(F)cc32)cc1F [Example 33, N-{2-fluoro-4-[({[(45)-6-fluoro-3,4-dihydrospiro[chromene-2,1′-cyclobutan]-4-yl]carbamoyl}amino)methyl]phenyl}methanesulfonamide]
71	5.28	–	C[C@]1(C(F)F)C[C@@H](NC(=O)NCc2ccc(NS(C)(=O)=O)c(F)c2)c2ccccc2O1 [Example 41, N-{4-[({[(2R,4R)-2-(difluoromethyl)-2-methyl-3,4-dihydro-2H-chromen-4-yl]carbamoyl}amino)methyl]-2-fluorophenyl}methanesulfonamide]
